ChEMBL document CHEMBL1126751, “Studies on quinazolines. 5. 2,3-dihydroimidazo[1,2-c]quinazoline derivatives: a novel class of potent and selective alpha 1-adrenoceptor antagonists and antihypertensive agents” (J Med Chem, 1993)
Calls of active or inactive are those of the source. The rule behind the calls is not given here.

Legend:
Rattus norvegicus [1] = experiment: Blood pressure lowering activity in spontaneously hypertensive rats (SHR) after 6 hours of administration (iv) of dose of 4.0 mg/kg; Did not last more than 1/2 hr […]; type: functional, organism-based; set-up: dose 4 mg/kg
[2] = target: T1, Adrenergic receptor alpha-1 (Rattus norvegicus, UniProt P15823+P23944+P43140); experiment: Binding affinity against alpha-1 adrenergic receptor by measuring displacement of [3H]prazosin from rat brain cortex membranes (in vitro).; type: cell membranes, Membrane
T1 sequence (P15823 whole entry): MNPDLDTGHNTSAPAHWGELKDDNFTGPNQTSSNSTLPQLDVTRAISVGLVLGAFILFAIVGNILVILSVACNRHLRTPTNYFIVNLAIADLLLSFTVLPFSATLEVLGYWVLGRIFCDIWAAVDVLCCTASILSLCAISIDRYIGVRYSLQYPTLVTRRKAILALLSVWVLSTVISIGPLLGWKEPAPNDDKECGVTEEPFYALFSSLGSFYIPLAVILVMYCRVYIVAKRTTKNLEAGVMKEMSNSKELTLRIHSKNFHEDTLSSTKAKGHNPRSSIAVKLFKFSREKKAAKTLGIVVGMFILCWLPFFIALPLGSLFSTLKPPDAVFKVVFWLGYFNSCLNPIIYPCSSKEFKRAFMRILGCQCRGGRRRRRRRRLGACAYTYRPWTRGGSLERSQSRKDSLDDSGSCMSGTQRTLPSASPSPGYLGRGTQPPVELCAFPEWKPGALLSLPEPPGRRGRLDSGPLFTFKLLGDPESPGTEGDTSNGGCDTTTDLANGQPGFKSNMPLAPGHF
T1 sequence (P23944 whole entry): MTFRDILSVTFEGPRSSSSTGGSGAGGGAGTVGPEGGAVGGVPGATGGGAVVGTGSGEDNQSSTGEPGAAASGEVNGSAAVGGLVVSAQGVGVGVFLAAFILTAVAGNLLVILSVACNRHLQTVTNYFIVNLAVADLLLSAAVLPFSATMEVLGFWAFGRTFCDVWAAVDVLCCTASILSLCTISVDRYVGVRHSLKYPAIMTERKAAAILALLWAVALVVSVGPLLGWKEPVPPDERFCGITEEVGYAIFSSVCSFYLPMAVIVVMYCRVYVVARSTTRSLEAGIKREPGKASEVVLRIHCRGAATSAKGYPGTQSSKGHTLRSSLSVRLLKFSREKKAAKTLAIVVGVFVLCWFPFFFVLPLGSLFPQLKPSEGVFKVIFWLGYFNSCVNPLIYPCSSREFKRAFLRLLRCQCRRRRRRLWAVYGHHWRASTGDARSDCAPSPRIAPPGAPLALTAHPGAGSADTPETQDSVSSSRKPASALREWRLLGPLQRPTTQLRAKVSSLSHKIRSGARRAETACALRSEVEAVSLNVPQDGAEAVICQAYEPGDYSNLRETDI
T1 sequence (P43140 whole entry): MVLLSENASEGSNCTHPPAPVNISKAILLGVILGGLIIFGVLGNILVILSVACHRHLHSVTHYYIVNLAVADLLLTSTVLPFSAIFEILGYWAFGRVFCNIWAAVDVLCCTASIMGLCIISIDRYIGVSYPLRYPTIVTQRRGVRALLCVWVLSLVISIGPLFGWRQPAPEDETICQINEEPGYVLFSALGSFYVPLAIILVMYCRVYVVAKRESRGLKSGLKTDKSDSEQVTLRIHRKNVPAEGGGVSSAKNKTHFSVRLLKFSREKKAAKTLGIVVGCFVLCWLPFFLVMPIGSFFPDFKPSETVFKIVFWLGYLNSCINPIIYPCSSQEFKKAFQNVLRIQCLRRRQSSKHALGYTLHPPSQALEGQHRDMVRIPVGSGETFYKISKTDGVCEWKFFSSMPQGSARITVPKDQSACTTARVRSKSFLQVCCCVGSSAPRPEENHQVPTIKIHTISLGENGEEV

Rattus norvegicus [3] = experiment: Blood pressure lowering activity in spontaneously hypertensive rats (SHR) after 1 hour of administration (iv) of dose of 4.0 mg/kg; Did not last more than 1/2 hr […]; type: functional, organism-based; set-up: dose 4 mg/kg
[4] = target: T2, Adrenergic receptor alpha-2 (Rattus norvegicus, UniProt P22086+P19328+P22909); experiment: Binding affinity against alpha-2 adrenergic receptor by measuring displacement of [3H]clonidine from rat brain cortex membranes (in vitro).; type: cell membranes, Membrane
T2 sequence (P22086 whole entry): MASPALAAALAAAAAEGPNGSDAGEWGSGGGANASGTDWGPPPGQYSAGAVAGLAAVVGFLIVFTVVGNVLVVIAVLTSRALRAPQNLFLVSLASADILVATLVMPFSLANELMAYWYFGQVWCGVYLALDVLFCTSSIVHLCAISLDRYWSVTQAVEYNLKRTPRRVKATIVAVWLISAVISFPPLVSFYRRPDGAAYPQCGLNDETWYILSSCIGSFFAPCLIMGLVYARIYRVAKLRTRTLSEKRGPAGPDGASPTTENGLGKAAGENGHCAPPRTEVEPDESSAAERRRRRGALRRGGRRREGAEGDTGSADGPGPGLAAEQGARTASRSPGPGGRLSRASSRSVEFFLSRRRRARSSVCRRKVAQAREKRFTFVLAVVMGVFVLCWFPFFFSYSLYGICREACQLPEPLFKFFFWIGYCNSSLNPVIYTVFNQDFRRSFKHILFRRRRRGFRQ
T2 sequence (P19328 whole entry): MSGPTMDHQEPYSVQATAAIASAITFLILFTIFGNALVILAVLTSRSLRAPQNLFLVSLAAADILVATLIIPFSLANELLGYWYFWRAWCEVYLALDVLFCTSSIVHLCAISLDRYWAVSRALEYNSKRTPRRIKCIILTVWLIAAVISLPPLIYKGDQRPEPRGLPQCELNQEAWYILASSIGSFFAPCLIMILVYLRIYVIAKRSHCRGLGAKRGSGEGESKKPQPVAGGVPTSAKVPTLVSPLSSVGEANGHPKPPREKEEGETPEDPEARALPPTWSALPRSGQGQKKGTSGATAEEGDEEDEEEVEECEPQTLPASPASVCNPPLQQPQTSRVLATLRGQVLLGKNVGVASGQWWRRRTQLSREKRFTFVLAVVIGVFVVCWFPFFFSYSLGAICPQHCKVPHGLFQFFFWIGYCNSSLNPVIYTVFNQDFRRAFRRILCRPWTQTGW
T2 sequence (P22909 whole entry): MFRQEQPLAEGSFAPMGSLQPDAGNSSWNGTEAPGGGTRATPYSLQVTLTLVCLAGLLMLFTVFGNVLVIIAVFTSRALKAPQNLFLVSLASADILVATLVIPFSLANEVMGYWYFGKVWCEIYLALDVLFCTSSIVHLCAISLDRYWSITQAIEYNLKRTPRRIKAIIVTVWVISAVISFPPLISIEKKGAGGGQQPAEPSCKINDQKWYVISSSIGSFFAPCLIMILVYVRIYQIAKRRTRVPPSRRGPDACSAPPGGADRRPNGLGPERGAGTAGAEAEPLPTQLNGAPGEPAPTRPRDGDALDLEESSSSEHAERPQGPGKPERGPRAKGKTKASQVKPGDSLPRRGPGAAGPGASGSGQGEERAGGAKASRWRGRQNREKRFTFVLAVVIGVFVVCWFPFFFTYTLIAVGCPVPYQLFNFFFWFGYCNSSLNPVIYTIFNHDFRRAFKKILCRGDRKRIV

Rattus norvegicus [5] = experiment: Blood pressure lowering activity in spontaneously hypertensive rats (SHR) after 6 hours of administration (iv) of dose of 0.5 mg/kg […]; type: functional
Rattus norvegicus [6] = experiment: Blood pressure lowering activity in spontaneously hypertensive rats (SHR) after 1 hour of administration (iv) of dose of 0.5 mg/kg […]; type: functional
Rattus norvegicus [7] = experiment: Blood pressure lowering activity in spontaneously hypertensive rats (SHR) after 6 hours of administration (iv) of dose of 1.0 mg/kg; Did not last more than 1/2 hr […]; type: functional, organism-based; set-up: dose 1 mg/kg
Rattus norvegicus [8] = experiment: Blood pressure lowering activity in spontaneously hypertensive rats (SHR) after 1 hour of administration (iv) of dose of 1.0 mg/kg; Did not last more than 1/2 hr […]; type: functional, organism-based; set-up: dose 1 mg/kg
Rattus norvegicus [9] = experiment: Blood pressure lowering activity in spontaneously hypertensive rats (SHR) after 6 hours of administration (iv) of dose of 0.5 mg/kg; Did not last more than 1/2 hr […]; type: functional, organism-based; set-up: dose 0.5 mg/kg
Rattus norvegicus [10] = experiment: Blood pressure lowering activity in spontaneously hypertensive rats (SHR) after 1 hour of administration (iv) of dose of 4.0 mg/kg […]; type: functional
Rattus norvegicus [11] = experiment: Blood pressure lowering activity in spontaneously hypertensive rats (SHR) after 6 hours of administration (iv) of dose of 4.0 mg/kg […]; type: functional

Structure (SMILES)	Ki [2]	Ki [4]	MBP (Rattus norvegicus [1])	MBP (Rattus norvegicus [3])	other results
COC1=Nc2ccccc2C2=NCC(CN3CCN(c4ccccc4)CC3)N12 (stereo not given)	1.35 nM	952 nM			MBP (Rattus norvegicus [7]): inactive; MBP (Rattus norvegicus [8]): inactive
CSC1=Nc2ccccc2C2=NCC(CN3CCN(c4ccccc4Cl)CC3)N12 (stereo not given)	0.34 nM	223 nM			MBP (Rattus norvegicus [7]): inactive; MBP (Rattus norvegicus [8]): inactive
COC1=Nc2ccccc2C2=NCC(CN3CCN(c4ccccc4Cl)CC3)N12 (stereo not given)	0.11 nM	116 nM			MBP (Rattus norvegicus [6]): -28.3 mmHg; MBP (Rattus norvegicus [9]): inactive
COC1=Nc2ccccc2C2=NCC(CN3CCN(c4ccccc4OC)CC3)N12 (stereo not given)	0.07 nM	472 nM			MBP (Rattus norvegicus [6]): -17.2 mmHg; MBP (Rattus norvegicus [9]): inactive
O=C(c1ccc(F)cc1)C1CCN(CC2CN3C(=O)Nc4ccccc4C3=N2)CC1 (stereo not given)					MBP (Rattus norvegicus [10]): -30 mmHg; MBP (Rattus norvegicus [11]): -13.8 mmHg
COc1ccccc1N1CCN(CC2CN=C3c4ccccc4N(C)C(=O)N32)CC1 (stereo not given)	0.36 nM	1419 nM			MBP (Rattus norvegicus [5]): -28.3 mmHg; MBP (Rattus norvegicus [6]): -32.5 mmHg
COc1ccc(N2CCN(CC3CN=C4c5ccccc5N=C(SC)N43)CC2)cc1 (stereo not given)	> 100 nM				MBP (Rattus norvegicus [7]): inactive; MBP (Rattus norvegicus [8]): inactive
COc1cccc(N2CCN(CC3CN4C(=O)Nc5ccccc5C4=N3)CC2)c1 (stereo not given)					MBP (Rattus norvegicus [10]): -20.3 mmHg; MBP (Rattus norvegicus [11]): -8.5 mmHg
COc1cccc(N2CCN(CC3CN=C4c5ccccc5N=C(SC)N43)CC2)c1 (stereo not given)	48.8 nM	8356 nM			MBP (Rattus norvegicus [7]): inactive; MBP (Rattus norvegicus [8]): inactive
COc1cccc(N2CCN(CC3CN=C4c5ccccc5N(C)C(=O)N43)CC2)c1 (stereo not given)	19.4 nM		inactive	inactive	
COC1=Nc2ccccc2C2=NCC(CN3CCN(c4ccc(OC)cc4)CC3)N12 (stereo not given)	> 100 nM		inactive	inactive	
COC1=Nc2ccccc2C2=NCC(CN3CCN(c4cccc(OC)c4)CC3)N12 (stereo not given)	> 100 nM		inactive	inactive	

The next lines start with results.

Ki [2]	Ki [4]	Structure (SMILES)	MBP (Rattus norvegicus [1])	MBP (Rattus norvegicus [3])	other results
> 50 nM		COc1ccc(N2CCN(CC3CN=C4c5ccccc5NC(=O)N43)CC2)cc1 (stereo not given)	inactive	inactive	
14.4 nM	391 nM	O=C1Nc2ccccc2C2=NC(CN3CCN(c4ccc(F)cc4)CC3)CN12 (stereo not given)		inactive	
0.58 nM	387 nM	O=C1Nc2ccccc2C2=NCC(CN3CCN(c4ccccc4Cl)CC3)N12 (stereo not given)			MBP (Rattus norvegicus [5]): -15 mmHg; MBP (Rattus norvegicus [6]): -14.6 mmHg
5.76 nM	302 nM	COc1cccc(N2CCN(CC3CN=C4c5ccccc5NC(=O)N43)CC2)c1 (stereo not given)	inactive	inactive	
> 10 nM		CSC1=Nc2ccccc2C2=NCC(CN3CCN(c4ccccc4)CC3)N12 (stereo not given)			MBP (Rattus norvegicus [7]): inactive; MBP (Rattus norvegicus [8]): inactive
0.68 nM	473 nM	CN1C(=O)N2CC(CN3CCN(c4ccccc4Cl)CC3)N=C2c2ccccc21 (stereo not given)			MBP (Rattus norvegicus [5]): -22.5 mmHg; MBP (Rattus norvegicus [6]): -27.5 mmHg
0.37 nM	1740 nM	COc1ccccc1N1CCN(CC2CN3C(=O)N(C)c4ccccc4C3=N2)CC1 (stereo not given)			MBP (Rattus norvegicus [5]): -28.4 mmHg; MBP (Rattus norvegicus [6]): -38.4 mmHg
586 nM		O=C1Nc2ccccc2C2=NC(CNC3CCN(Cc4ccccc4)CC3)CN12 (stereo not given)	inactive	inactive	
1.7 nM	962 nM	O=C1Nc2ccccc2C2=NCC(CN3CCN(c4ccccc4)CC3)N12 (stereo not given)			
251.2 nM		O=C1Nc2ccccc2C2=NC(CN3CCC4(CCCCC4)CC3)CN12 (stereo not given)	inactive	inactive	
95.9 nM		O=C1Nc2ccccc2C2=NC(CN3CCN(c4ccccn4)CC3)CN12 (stereo not given)	inactive	inactive	
35.8 nM	5011 nM	O=C1Nc2ccccc2C2=NC(CN3CCC(Cc4ccccc4)CC3)CN12 (stereo not given)	inactive		MBP (Rattus norvegicus [10]): -30.6 mmHg
